From the NIST ThermoML archive (doi:10.1016/j.jct.2017.02.005)
Where “and” joins values, the source holds several entries; their conditions need not be identical. Identical values can stand only once.

Settings: Liquid, Ebulliometric method (Recirculating still)

O [water]
Settings	vapor or sublimation pressure [kPa]
372.81 K	100
372.84 K	100

CC(C)O [propan-2-ol]
Settings	vapor or sublimation pressure
317.07 K	17.46 kPa
317.65 K	17.98 kPa
318.1 K	18.39 kPa
318.73 K	19.01 kPa
319.19 K	19.48 kPa
319.72 K	20.03 kPa
320.19 K	20.52 kPa
320.65 K	21 kPa
321.11 K	21.49 kPa
321.58 K	22.03 kPa
322.07 K	22.55 kPa
322.47 K	23.03 kPa
322.91 K	23.52 kPa
323.32 K	24.02 kPa
323.71 K	24.51 kPa
324.13 K	25.03 kPa
324.49 K	25.48 kPa
324.94 K	26.04 kPa
325.3 K	26.52 kPa
325.72 K	27.08 kPa
326.18 K	27.69 kPa
326.53 K	28.19 kPa
326.99 K	28.83 kPa
327.46 K	29.45 kPa
327.86 K	30.08 kPa
328.47 K	30.96 kPa
329.06 K	31.86 kPa
329.64 K	32.76 kPa
330.26 K	33.77 kPa
330.73 K	34.52 kPa
331.32 K	35.48 kPa
331.83 K	36.37 kPa
332.44 K	37.45 kPa
332.99 K	38.41 kPa
333.5 K	39.33 kPa
334.1 K	40.41 kPa
334.6 K	41.44 kPa
335.12 K	42.44 kPa
335.64 K	43.46 kPa
336.11 K	44.38 kPa
336.55 K	45.32 kPa
337.07 K	46.34 kPa
337.5 K	47.28 kPa
337.98 K	48.35 kPa
338.45 K	49.34 kPa
338.86 K	50.25 kPa
339.3 K	51.26 kPa
339.72 K	52.33 kPa
340.04 K	53.01 kPa
340.43 K	53.94 kPa
340.89 K	55.03 kPa
341.25 K	55.92 kPa
341.69 K	56.96 kPa
342.09 K	58.05 kPa
342.48 K	59.04 kPa
342.82 K	59.93 kPa
343.2 K	60.91 kPa
343.59 K	61.94 kPa
343.96 K	62.98 kPa
344.32 K	63.92 kPa
344.68 K	64.96 kPa
345.05 K	65.97 kPa
345.35 K	66.84 kPa
345.75 K	68.03 kPa
346.13 K	69.14 kPa
346.46 K	70.12 kPa
347.11 K	72.04 kPa
347.79 K	74.18 kPa
348.37 K	75.96 kPa
348.95 K	77.81 kPa
349.61 K	79.96 kPa
350.08 K	81.58 kPa
350.75 K	83.94 kPa
351.21 K	85.47 kPa
351.69 K	87.17 kPa
352.09 K	88.63 kPa
352.54 K	90.24 kPa
353.16 K	92.57 kPa
353.66 K	94.46 kPa
354.2 K	96.49 kPa
354.59 K	98.05 kPa
355.09 K	100 kPa and 100.03 kPa
355.38 K	101.28 kPa
355.93 K	103.44 kPa
356.4 K	105.38 kPa
356.76 K	106.91 kPa
357.16 K	108.63 kPa
357.52 K	110.13 kPa
357.93 K	111.88 kPa
358.35 K	113.79 kPa
358.65 K	115.1 kPa
358.98 K	116.64 kPa
359.43 K	118.64 kPa
359.77 K	120.24 kPa
360.16 K	122.11 kPa
360.57 K	124.03 kPa
360.9 K	125.62 kPa
361.26 K	127.36 kPa
361.62 K	129.08 kPa
361.98 K	130.93 kPa
362.26 K	132.35 kPa
362.52 K	133.65 kPa
